# Assay results from patent US20100048545A1, “Compounds and Compositions for Use in the Prevention and Treatment of Disorders of Fat Metabolism and Obesity” (INNODIA INC., priority 2006, published 2010).
# Entries after “also recorded” stand apart in the source; their conditions may differ. Like-named read-outs stand apart in the source and are kept apart here.
# How the values were obtained:
# [1] = test system: AMPK-ACC; test: Phosphorylation level of AMPK-ACC in the hypothalamus of HFHS fed rats (Western blot, anti-pACC); format: in vivo; settings: 100 mg/kg BID for 2 days, overnight fasted, dosed one hour before terminal procedure, vs control
# Description: The AMPK pathway is known to regulate food intake in the hypothalamus. In low energy state as in a food deprivation situation, AMPK phosphorylates and in this way inactivates acetyl CoA carboxylase (ACC). Phosphorylation of ACC thus reduces its ability to catalyse the production of malonyl-CoA which is thought to be implicated in the […] of food consumption (.Hu, Z., Dai, Y., Prentki, M., Chohnan, S, and Lane, D. (2005) J. Biol. Chem. 280: 39681-39683).
# To investigate whether 4-OH can alter activity of the AMPK/ACC in the hypothalamus, rats were treated BID with 100 mg/kg of 4-OH or water (control group) for 2 days. Each group was composed of four animals. All rats (controls and 4-OH treated) were fasted overnight before experimentation. On day 29, rats from each respective group were treated one hour before the terminal procedure with their appropriate solution (water for control and 4-OH for chronically 4-OH treated rats). After decapitation, the hypothalamus were isolated and snap frozen in liquid nitrogen. The hypothalamus was then powdered with liquid nitrogen and then solubilized in lysis buffer. Western blot was performed on the hypothalamus extract after resolution of proteins onto a 7.5% polyacrylamide SDS gel and transfer onto a nitrocellulose membrane. […]
# [2] = test system: Wistar rats fed HFHS diets; test: Energy expenditure (oxygen consumption) by indirect calorimetry in HFHS fed rats; format: in vivo; settings: 100 mg/kg oral gavage twice daily, 4 weeks, vs pair fed and HFHS control, p<0.01
# Protocol: A study was conducted to determine whether the decrease in adiposity as described above was due to increased energy expenditure. For this study, Wistar rats were randomized into 3 groups (n=10/group) and fed HFHS diets. […] The second group of animals served as pair fed controls, and while not treated with drug, diet in terms of caloric intake was matched to treated animals. The third group was fed a HFHS diet ad libitum without any treatment. After a 4 week period of treatment these animals were assessed by indirect calorimetry with increased oxygen consumption used as an indicator of increased energy expenditure.
# [3] = test system: CPT1; test: RT-PCR gene expression in adipocytes of treated rats: CPT1; format: in vivo; settings: data not shown
# Protocol: (§1) As the ex vivo studies on adipocytes indicated the lipolytic effect of drug was due to chronic exposure (see previous example), a role in gene regulation was assessed. RT-PCR was used to assess the expression of genes in the adipocytes from treated and control animals.
# [4] = test system: DIO-mice; settings: for food consumption: 4-OH 50 or 100 mg/kg
# Description: The objective of this study was to evaluate the effect of chronic administration of 4-hydroxyisoleucine (4-OH, compound 14a) and Rosiglitazone, administered alone or in combination, on food consumption and body weight gain of DIO-mice. Both parameters were monitored for 1 week prior to the commencement of treatment, then for the 28 days of treatment and for an additional 7 days post-treatment.
# A total of 72 animals were used in the study. The animals were distributed into 6 groups (5 treated, 1 control group, all on high fat diet). Each group was composed of 12 animals. The mice were randomized according to body weight and basal glycemia values following a 5±0.5 hour fasting period.
# For the four weeks of treatment, the test articles were dissolved in reverse osmosis water. 4-Hydroxyisoleucine was aliquoted and kept at 4° C. (administration to groups 2, 3, and 6), while Rosiglitazone was freshly prepared daily and kept at 4° C. between the AM and PM administration to groups 4, 5, and 6. Control animals received reverse osmosis water twice daily (group 1). Mice from groups 2 and 3 were treated twice daily with 4-OH at 50 and 100 mg/kg, respectively. Animals from groups 4 and 5 received 1.5 and 5 mg/kg of Rosiglitazone, respectively. […] All groups were treated by oral gavage. Treatment commenced on Day 0 and ended on Day 28 (FIGS. 18A and 18C.
# Food consumption was measured and averaged on a weekly basis beginning one week before the start of treatment as shown in FIGS. 18B and 18D as week −1. Similarly, food consumption was monitored for one week after treatment was stopped and is shown as week 5 in FIGS. 18B and 18D, In FIG. 18B, the food consumption over time for various treatment groups is illustrated by the bar graph.
# [5] = test system: FatB1; test: RT-PCR gene expression in adipocytes of treated rats: FatB1; format: in vivo; settings: data not shown
# Protocol: as §1
# [6] = test system: Sprague-Dawley rats; test: 13-week oral toxicity study: body weight and lipid profiles of SD rats fed regular chow; format: in vivo
# Protocol: Sprague-Dawley rats were received at 7-12 weeks of age (225-300 g). […] The control group received vehicle (water) alone. Body weights were recorded once prior to group assignment, and approximately one week prior to initiation of treatment. Then, body weights were recorded for all animals up to 1 day prior to dosing and weekly thereafter during the treatment period. At the end of the treatment period, a blood sample was withdrawn to measure plasma triglyceride and cholesterol levels.
# [7] = test system: white adipocytes; test: Release and uptake of free fatty acids by ex vivo cultured white adipocytes of treated rats; format: cell-based, Wistar rats
# Description: A total of 60 animals were used in the study. The animals were distributed into 6 groups; 1 group was fed standard chow, 1 group was fed a high fat, high sucrose (HFHS) diet with 28 days treatment, 1 untreated control group was fed a HFHS diet, and 1 untreated group was fed a HFHS diet, but with caloric intake restricted to match the caloric intake of the 4-OH treated animals (pair-fed animals). A fifth group was fed a high fat, high sucrose (HFHS) diet with 28 days treatment and received an acute oral administration of 4-OH just prior to experimentation on Day 29 of the study, and a sixth group was fed a HFHS diet, but with caloric intake restricted to match the caloric intake of the 4-OH treated animals receiving an acute oral administration of 4-OH on Day 29 of the study (pair-fed animals). Each group was composed of 10 animals. […] Body weights were measured once weekly from week 1 to week 4 of the study. The white adipose tissues of non-treated and treated rats were collected and cultured ex vivo. After 2 hours of culture, the relative release and uptake of free fatty acids by the adipocytes was measured in absence or presence of insulin, and standardized on the basis of DNA content of the cultures.
# [8] = 100, 200, 400 mg/kg/day, Day 92
smiles,measurement,setting,value
"C[C@@H]([C@H](C)O)[C@H](N)C(=O)O [Compound 14a, (2S,3R,4S)-4-Hydroxyisoleucine]",level of phosphorylated ACC in hypothalamus,[1],even more reduced
same,"oxygen consumption (energy expenditure), night phase",[2],oxygen consumption was increased
same,expression of CPT1,[3],Upregulation
same,weight gain,[4]; 4-OH 100 mg/kg twice daily,Moderation of weight gain was observed
same,food consumption,"[4]; first week of treatment, listed as 4-OH","food consumption decreased; also recorded: reduction in food consumption during the first week, but not after"
same,food consumption,[4]; remainder of the treatment phase,consumption returned to pre-treatment levels
same,weight gain,"[4]; Rosiglitazone 1.5 mg/kg with 4-OH 50 mg/kg, relative to the group treated with Rosiglitazone alone",able to modulate the weight gain induced by Rosiglitazone
same,expression of FatB1,[5],Upregulation
same,"average body weight at end of treatment, male rats","[6]; 200 mg/kg/day, 13 weeks",527 g
same,"average body weight at end of treatment, male rats","[6]; 400 mg/kg/day, 13 weeks",520 g
same,"reduction of triglycerides, significance","[6]; 400 mg/kg/day, male rats",statistically significant
same,"cholesterol levels, male rats",[6]; [8],reduced in a dose-dependant manner
same,"triglyceride levels, male rats",[6]; [8],reduced in a dose-dependant manner
same,"body weight, male rats","[6]; 200 and 400 mg/kg/day once daily oral, 13 weeks, vs control",clear reduction of body weight compared to control rats
same,"reduction of cholesterol, significance","[6]; 200 and 400 mg/kg/day, male rats",statistically significant
same,fatty acid uptake in presence of insulin,[7]; 2 hours of culture,not significantly different across all groups
same,basal fatty acid release,"[7]; 2 hours of culture, absence of insulin, vs pair-fed groups, p<0.01",significant increased basal fatty acid release
same,insulin stimulated release of fatty acid,"[7]; vs pair fed groups and HFHS control, p<0.01",significantly increased
